Read-outs that look alike come from different tables or passages of the source.
What was measured:
[1] = DPPH radical scavenging assay; type: biochemical; design: DPPH517nm % SA ± SD: dose or concentration left out as unconfirmed; settings: for DPPH517nm % SA ± SD: mean of three measurements
From the text: (§1) Three in vitro antioxidant assays (DPPH, FRAP, and ABTS) were utilized to evaluate the antioxidant property of the synthesized compounds. The DPPH (α, α-diphenyl-β-picrylhydrazyl) assay is the well-known approach to determine antioxidant activity using a stable free radical DPPH, measure the absorbance change, and calculate the absorbance change in the percentage of scavenging activity. […] For example, the ferric-tripyridyltriazine (Fe^3+-TPTZ, colorless) complex is reduced to ferrous tripyridyltriazine (Fe^2+-TPTZ) at low pH and introduces a blue color with maximum absorption at 593 nm. The change in absorbance is related to antioxidant activity. However, a significant limitation of these in vitro tests is the non-physiological measurement conditions (no enzymatic condition and no transition metal ion chelating activity); therefore, the results obtained may not reflect the antioxidant activity of the source material under the biological conditions that exist in humans and animals. The ABTS assay involves a more drastic radical that is chemically produced. The use of ABTS for antioxidant activity determination of hydrophilic and lipophilic pure compounds has attracted interest due to its solubility in organic and aqueous media and stability in a wide pH range [31].
The DPPH method was followed and modified from a previous study. Trolox was used as a reference. The DPPH stock solution at a concentration of 0.625 mM was prepared in 50% ethanol and kept at 4 °C in the dark. On the day of the experiment, 0.208 mM fresh DPPH working solution was freshly prepared by further diluting with 50% ethanol. […] Each reaction was carried out in a 96-well plate, and 100 μL of test preparation and DPPH solution were added. The 96-well plate was then shaken well for 10 min and kept in the dark at room temperature for 20 min, and the absorbance was recorded at 515–517 nm. According to the method described, delocalization also results in a deep violet color and is quantified as a percentage of scavenging activity. % scavenging activity (SA) = 100 × (Asample − Ablank)/(Acontrol − Ablank)(1) where Acontrol and Asample are the absorbances of the test DPPH without and with a sample, respectively. Ablank is the absorbance of the solvent used. The EC50 values were calculated from the relationship curve of %SA versus sample concentration. The experiment was carried out at least in triplicate.

[2] = FRAP (ferric reducing antioxidant power) assay; type: biochemical; settings: Trolox equivalent
From the text: as §1
The FRAP assay is a method for assessing antioxidant power. Briefly, the FRAP reagent was prepared from acetate buffer pH 3.6, 10 mM TPTZ solution in 40 mM HCl and 20 mM FeCl3.6 H2O in relative proportions of 10:1:1, v/v, respectively. The FRAP reagent was freshly prepared daily. A solution of 5 μL of the sample (3–300 μM, approx.) was mixed with 180 μL of the FRAP reagent in a 96-well plate. The mixture was shaken in the dark for 10 min and incubated at 37 °C for 20 min, and the absorbance was determined at 593 nm. The solution without the sample was used as a blank. All determinations were made in triplicate. Trolox was used as a standard antioxidant and plot the calibration curve between absorbance and concentration. Quercetin was applied as the reference compound. The FRAP values were calculated by comparing the absorbance change in the test sample and represented in μM of Trolox equivalent per μM of sample.

[3] = ABTS radical cation scavenging assay; type: biochemical
From the text: as §1
The ABTS assay was prepared by reaction of 5 mL of a 7 mM aqueous ABTS (2,2′-azino-bis (3-ethylbenzthiazoline-6-sulphonic acid) solution and 2.45 mM potassium persulfate solution (K2S2O8). After preparation and storage in the dark for 16 h, the radical cation solution was further diluted in ethanol to absorb about 0.7 at 734 nm. Trolox and test sample solutions were prepared in stock solution with DMSO and diluted with ethanol. A solution of 100 μL of the sample was mixed with 100 μL of the ABTS reagent in a 96-well plate. The mixture was shaken in a dark place for 10 min and incubated at 37 °C for 20 min, and the absorbance was determined at 734 nm. Absorbance determinations were recorded immediately and not more than 1 h after adding the reagent. The solution without the sample was used as a blank. All the determinations were made in triplicate. The sample’s scavenging percentage was calculated from this equation: scavenging percentage = (Absorbance control − Absorbance sample) × 100/Absorbance control. EC50 values were calculated from the relationship curve of %scavenging versus sample concentration.

[4] = MTT cytotoxicity assay, HACAT cells; type: cell-based; settings: human; for viability at 24 h, 100 µM: read-out: % Viability ± SD (at 100 μM) HACAT 24 h; for viability at 48 h, 100 µM: read-out: % Viability ± SD (at 100 μM) HACAT 48 h
Experimental: (§2) HEK293, HACAT, and HeLa cells were grown in modified Eagles’ minimum essential medium (EMEM, Gibco) with 10% fetal bovine serum (FBS, Gibco), 1% of 100 U/mL streptomycin and 100 U/mL penicillin (Gibco). Cells were seeded in culture flasks and maintained in an incubator at 37 °C in a humidified atmosphere with 5% CO2. After reaching 80–90% of confluence, cells were detached by incubation with 0.25% trypsin-0.2% EDTA (Gibco) for 5 min and plated for experiments.
(§3) This study examined cell cultures of HEK293, HACAT, and HeLa cells. The cytotoxicity of the test samples was carried out by the MTT (3-(4,5-dimethylthiazol-2-yl)-2,5-diphenyltetrazolium bromide) assay. The cells were seeded in 96-well microliter plates (2.0 × 10^4 cells/well). Stock solutions of the test compounds were prepared in DMSO. After 24 h, cells were treated with different concentrations of samples and diluted with media to obtain the final desired concentration. The treated cells were then incubated at 37 °C and 5% CO2 for 24 and 48 h. After incubation, the medium was replaced with 0.05% w/v of MTT solution in PBS and further incubated for 3 h. The solution was then discarded and DMSO was added to dissolve the formed formazan crystals. Each well’s absorbance (A) was measured at 570 nm using a microplate reader (FLUOstar Omega^TM, BMG Labtech, Ortenberg, Germany). All experiments were carried out in triplicate and repeated for at least three experiments.

[5] = test system: HEK293 cells; experiment: MTT cytotoxicity assay, HEK293 cells; type: cell-based; settings: 24 and 48 h treatment
Experimental: as §2, §3

[6] = MTT cytotoxicity assay, HEK293 cells; type: cell-based; settings: human, HEK293 cells, 100 μM; for viability at 24 h, 100 µM: read-out: % Viability ± SD (at 100 μM) HEK293 24 h; for viability at 48 h, 100 µM: read-out: % Viability ± SD (at 100 μM) HEK293 48 h
Experimental: as §2, §3

[7] = test system: HeLa cell; experiment: MTT anticancer activity assay, HeLa cells; type: cell-based
Experimental: as §2, §3

[8] = test system: HeLa cells; experiment: Cellular ROS assay (ROS deep red fluorescence kit); type: cell-based; settings: pretreatment 50, 100, 150 μM for 24 h; 5 mM H2O2 30 min
Experimental: ROS is the main contributor to cell death. These reactive molecules are formed by several mechanisms and can be detected by various techniques. In order to investigate the level of cellular ROS after treatment with compounds, the accumulation of intracellular ROS in cells was quantified with a cellular ROS assay kit (ab186029, Abcam, Boston, USA) fluorescence assay. After pretreatment with 2f, 2j, and 3i at 50, 100, and 150 μM for 24 h, cell stress was induced with 5 mM hydrogen peroxide for 30 min. The cells in each well were collected and resuspended with a serum-free medium containing the ROS red probe. Subsequently, cells were incubated at 37 °C for 30 min in the dark, and fluorescence was read at Ex/Em = 650/675 nm.
In this study, Hela cells were seeded overnight at 20,000 cells/90 µL/well in a black wall/clear bottom 96-well plate. Cells included those untreated (control) and those pre-treated with compounds at various concentrations (50, 100, 150 μM) for 24 h. The ROS deep red assay solution (100 μL/well) was added and incubated at 5% CO2, 37 °C incubator for 30 min. The fluorescence signal was monitored at Ex/Em = 650/675 nm (cut off = 665 nm) with bottom read mode within 30 min (cellular ROS assay kit, ab186029, abcam).

[9] = Homo sapiens, 24 h, read-out: % Viability ± SD (at 100 μM) HeLa 24 h
[10] = Homo sapiens, 48 h, read-out: % Viability ± SD (at 100 μM) HeLa 48 h

SMILES | DPPH517nm % SA ± SD [1] [%] | FRAP593nm Value ± SD (TE) [2] | ABTS734nm % Scavenging at 500 µM [3] [%] | viability at 24 h, 100 µM [4] [%] | viability at 48 h, 100 µM [4] [%] | melting point [°C] | Toxicity in HEK293 cells [5] | viability at 24 h, 100 µM [6] [%] | viability at 48 h, 100 µM [6] [%] | IC50 ([7]; 24 h) [µM] | Anticancer activity on cervical cancer cells ([7]; HeLa, 24 h) | IC50 ([7]; Homo sapiens, HeLa, 24 h) [µM] | viability at 100 µM [7, 9] [%] | viability at 100 µM [7, 10] [%] | EC50 ([1]; read-out: DPPH517nm EC50 ± SD) [µM] | EC50 ([3]; read-out: ABTS734nm EC50 ± SD) [µM] | Cellular ROS fluorescence intensity vs H2O2-treated cells [8]
O=C(c1ccc([N+](=O)[O-])cc1)c1c(-c2ccc([N+](=O)[O-])cc2)oc2cc(O)ccc2c1=O [2i, 7-hydroxy-3-(4-nitrobenzoyl)-2-(4-nitrophenyl)-4H-chromen-4-one] | 13.75 ± 3.31 | 0.08 ± 0.006 µM Trolox/1 µM of Synthesized Compounds | 8.52 ± 3.89 | 59.8 ± 5.77 | 27.5 ± 1.24 | 290 to 291 | more toxic | 65.1 ± 1.21 | 41.2 ± 2.11 | 34.9 ± 2.41 | contained anticancer activity | 34.9 | 38.7 ± 5.22 | 12.5 ± 1.45 |  |  | 
CC(=O)c1ccc(O)c(O)c1OC(=O)c1ccccc1 [3i, 6-Acetyl-2,3-dihydroxyphenyl benzoate] | 90.55 ± 0.36 | 3.16 ± 0.350 µM Trolox/1 µM of Synthesized Compounds | 78.80 ± 1.14 | 104.8 ± 0.88 | 84.9 ± 3.05 |  |  | 110 ± 1.2 | 107 ± 4.18 |  |  |  | 99.9 ± 4.19 | 37.1 ± 1.96 | 59 ± 11.2 | 13.9 ± 0.74 | decreased significantly
CC(=O)c1ccc(O)cc1OC(=O)c1ccco1 [compound 4, 2-Acetyl-5-hydroxyphenyl furan-2-carboxylate] | 0.99 ± 0.71 | 0.00 ± 0.001 µM Trolox/1 µM of Synthesized Compounds | 14.51 ± 1.94 | 85.7 ± 5.6 | 72.2 ± 1.81 | 122 to 124 |  | 97.99 ± 0.4 | 108 ± 2.84 |  |  |  | 86.1 ± 3.24 | 91.07 ± 0.65 |  |  | 
